# Patent US20120077738A1, “COMPOSITIONS AND METHODS FOR […] SUSCEPTIBILITY TO ANTIVIRAL AGENTS” (priority 2010, published 2012)
# System: genotype 1 HCV
# Test: HCV outcome after liver transplant in HIV/HCV coinfected patients by calcineurin inhibitor
# Type: in vivo, human
# Excerpt: Calcineurin Inhibition Use posttransplant in HIV/HCV infected patients. Eighty HIV/HCV coinfected patients received liver transplants as part of the HIV and transplantation trial from 2003-2009. Of these patients 61 were infected with genotype 1 HCV and received only a liver (not liver+kidney) and are further described here and in the corresponding data shown in FIGS. 1-14.
smiles,measurement,setting,value
C=CC[C@@H]1/C=C(\C)C[C@H](C)C[C@H](OC)[C@H]2O[C@@](O)(C(=O)C(=O)N3CCCC[C@H]3C(=O)O[C@H](/C(C)=C/[C@@H]3CC[C@@H](O)[C@H](OC)C3)[C@H](C)[C@@H](O)CC1=O)[C@H](C)C[C@@H]2OC [Tacrolimus],failed interferon therapy,"by calcineurin inhibitor started immediately post transplant, two of the CsA group had switched to Tacrolimus",13 patients
same,Sustained Virologic Response (negative HCV PCR 6 months or more after HCV therapy was stopped),patients on Tacrolimus immediately post transplant who received interferon based therapy,one patient out of these 14
